The source of these data is patent US5045566A, “Novel imidate insecticides” (ICI Americas Inc., priority 1989, dated 1991).

Assay type in all cases: in vivo
Assay [1] has as its system Housefly [Musca domestica]. As to the kind of experiment: Housefly contact mortality in dishes (HF), 48 hours. The settings on record: μg of test compound per 25 female flies. Summed up: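 Acetone solutions (with 0.01% peanut oil) dried onto dish bottoms, then 25 female flies, 1-2 days old, caged over the residue with sugar water. Mortality scored at 48 hours; LC50 from dosage-mortality curves, in μg per 25 female flies, top level 100 μg.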

The subject of assay [2] is Black Bean Aphid [Aphis fabae (Scop.)]. As to the kind of experiment: Black bean aphid spray test on nasturtium (BBA), 48 hours. The settings on record: percent of test compound in sprayed solution. Summed up: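 LC50, given as percent test compound in the sprayed liquid, was calculated from dosage-mortality curves using concentrations from 0.05% downward. Sprays in 50:50 acetone-water went to runoff on ~5 cm nasturtiums carrying 25-50 aphids of mixed ages, one day after infestation. Deaths were counted 48 h later under greenhouse conditions.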

Assay [3] concerns Tobacco Budworm [Heliothis virescens (Fabricius)] eggs. As to the kind of experiment: Tobacco budworm eggs (TBW-E). The settings on record: percent in solution; 2-day old eggs. In outline: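 Step 1: dip 2-day old egg patches in acetone test solutions (top concentration 0.1%). Step 2: hold in dishes with rearing medium at 78° F. Step 3: record mortality after control hatch and feeding.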

Assay [4] deals with Cabbage Looper [Trichoplusia ni (Hubner)]. Briefly: Cabbage looper leaf dip (CL), 3-5 days. The settings on record: percent in solution, second-instar larvae. Summed up: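 Squash cotyledons dipped in test solution (acetone-water 50-50, ≤0.1%), dried, offered to 5 second-instar larvae; mortality after 3-5 days gives LC50.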
Assay [5] deals with Aster Leafhopper [Macrosteles fascifrens (Stal)]. As to the kind of experiment: Aster leafhopper on dipped oat seedlings (LH), 48 hours. The settings on record: percent in solution, adults/nymphs. Here is the method: The compounds in Tables 1 and 2 above were tested for insecticidal activity using the following testing procedures. LC50 values, based on the results of these tests and calculated according to dosage-mortality curves, are expressed in Table 3.
Aster Leafhopper [Macrosteles fascifrens (Stal)]
Oat seedlings (Avena sp) were grown in a commercial potting soil in cups. When the plants were approximately 10 cm tall they were thinned to three plants per cup and dipped for 2-3 seconds in 50-50 acetone-water solutions of the test compounds. When the plants had dried, a clear plastic tube was placed over them and the bottom end pressed into the cup. Ten aster leafhopper adults/nymphs were then placed in each tube and the tops of the tubes covered with white organdy cloth. Mortality counts were made after 48 hours. Test concentrations ranged from 0.05% down to that at which 50% mortality occurred. The LC50 values are expressed below in Table 3 under the heading "LH" in terms of the percent of the test compound in the solution.

Assay [6] relates to Maize weevil [Sitophilus zeamais (Motschulsky)]. Briefly: Maize weevil on dipped corn seeds (MW), 48 hours. The settings on record: percent in solution, adult weevils. Summed up: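 LC50, given as percent of compound in dipping solution, comes from dosage-mortality curves over concentrations descending from 0.01%. Four corn seeds soaked 2-3 s in 50:50 acetone:water solution were dried and held with 10 adult weevils, about 25° C, mortality read after 48 h.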

For the compound `CSc1ccc(Oc2cccc(COC(=Nc3ccc(F)cc3)C(C)C)c2)cc1` [Compound 257], the “LC50 HF” value in assay [1] is over 100 µg. In addition, the “LC50 BBA” value in assay [2] stood at 0.05%. In assay [3], the “LC50 TBW E (eggs)” value is given as over 0.1%. Besides, the “LC50 CL” value in assay [4] came to 0.008%. Moreover, the “LC50 LH” value in assay [5] was over 0.05%.
Turning to `CC(C)C(=Nc1ccc(Cl)cc1)OC(C)c1cccc(Oc2ccccc2)c1` (stereo not shown) [Compound 457], the “LC50 HF” value in assay [1] was over 100 µg. In assay [2], the “LC50 BBA” value is recorded as over 0.05%. For the same compound, the “LC50 TBW E (eggs)” value in assay [3] was over 0.05%. For the same compound, the “LC50 CL” value in assay [4] stood at 0.009%. Further, in assay [5], the “LC50 LH” value was over 0.05%.
As for `CC(C)C(=Nc1cc(F)ccc1Cl)OCc1ccc(F)c(Oc2ccc(F)cc2)c1` [Compound 303], in assay [1], the “LC50 HF” value is over 100 µg. Further, the “LC50 TBW E (eggs)” value in assay [3] is given as over 0.1%. Further, the “LC50 CL” value in assay [4] stood at 0.0015%. Further, in assay [5], the “LC50 LH” value is listed as 0.0005%.
In the same order, the values of `CC(C)C(=Nc1ccc2c(c1)OCO2)OCc1cccc(Oc2ccc(F)cc2)n1` [Compound 465] are 8 µg, 0.027%, 0.0017% and 0.0025%.
In the case of `CC(C)C(=Nc1ccc(I)c(Cl)c1)OCc1ccc(F)c(Oc2ccc(F)cc2)c1` [Compound 385], in assay [1], the “LC50 HF” value was under 100 µg. Also, the “LC50 BBA” value in assay [2] is over 0.05%. In assay [3], the “LC50 TBW E (eggs)” value is over 0.1%. The “LC50 CL” value in assay [4] was over 0.1%. Further, the “LC50 MW” value in assay [6] is over 0.01%.
As to `CC(C)C(=Nc1cccc(C(F)(F)F)c1)OC(C)c1cccc(Oc2ccccc2)c1` (stereo not shown) [Compound 459], in assay [1], the “LC50 HF” value is over 100 µg. The “LC50 BBA” value in assay [2] is given as over 0.05%. The “LC50 TBW E (eggs)” value in assay [3] stood at 0.1%. In addition, in assay [4], the “LC50 CL” value was 0.008%. Besides, the “LC50 MW” value in assay [6] is over 0.01%.
As to `CC(C)C(=Nc1ccc(Cl)c(C(F)(F)F)c1)OCc1ccc(F)c(Oc2ccccc2)c1` [Compound 388], the “LC50 HF” value in assay [1] was under 100 µg. In addition, in assay [2], the “LC50 BBA” value worked out at 0.0006%. In assay [3], the “LC50 TBW E (eggs)” value was over 0.1%. Besides, the “LC50 CL” value in assay [4] stood at 0.0012%. The “LC50 MW” value in assay [6] is given as over 0.01%.
For `Cc1ccc(Oc2cccc(COC(=Nc3ccc(C(C)(C)C)cc3)C(C)C)c2)cc1` [Compound 344], in that order: over 100 µg, 0.008%, over 0.1%, 0.024% and over 0.01%.
For the compound `CC(C)C(=Nc1cccc(Cl)c1)OCc1ccc(F)c(Oc2ccc(Cl)cc2)c1` [Compound 390], the “LC50 HF” value in assay [1] is under 100 µg. Moreover, the “LC50 BBA” value in assay [2] is recorded as 0.0006%. Besides, the “LC50 TBW E (eggs)” value in assay [3] amounted to 0.045%. Also, the “LC50 CL” value in assay [4] was 0.0021%. Besides, the “LC50 MW” value in assay [6] is over 0.01%.
For `CCCC(=Nc1ccc2c(c1)OCO2)OCc1cccc(Oc2ccccc2)c1` [Compound 188], the “LC50 HF” value in assay [1] came out at 12 µg. Besides, in assay [3], the “LC50 TBW E (eggs)” value is over 0.1%. For the same compound, the “LC50 CL” value in assay [4] came to 0.002%. Further, the “LC50 LH” value in assay [5] is reported as over 0.05%.
Take `CCCc1ccc(N=C(OCc2ccc(F)c(Oc3ccc(F)cc3)c2)C(C)C)cc1` [Compound 440]: in assay [1], the “LC50 HF” value is over 100 µg. The “LC50 BBA” value in assay [2] is 0.0003%. Besides, in assay [3], the “LC50 TBW E (eggs)” value was under 0.1%. For the same compound, the “LC50 CL” value in assay [4] amounted to 0.002%. Further, the “LC50 MW” value in assay [6] is recorded as over 0.01%.
In the same order, the values of `CC(C)C(=Nc1ccc(C(F)(F)F)c(Br)c1)OCc1ccc(F)c(Oc2ccccc2)c1` [Compound 434] are under 100 µg, 0.003%, over 0.1%, 0.0017% and 0.009%.
In the same order, the values of `Cc1cc(N=C(OCc2ccc(F)c(Oc3ccc(F)cc3)c2)C(C)C)ccc1F` [Compound 396] are under 100 µg, 0.0002%, under 0.1%, 0.0017% and over 0.01%.
As for `COc1ccc(N=C(OCc2ccc(F)c(Oc3ccc(Cl)cc3)c2)C(C)C)cc1` [Compound 412], the “LC50 HF” value in assay [1] is under 100 µg. Besides, the “LC50 BBA” value in assay [2] was 0.0032%. The “LC50 TBW E (eggs)” value in assay [3] was over 0.1%. In addition, the “LC50 CL” value in assay [4] was over 0.1%. Besides, the “LC50 MW” value in assay [6] is given as over 0.01%.
As for `COc1ccc(Oc2cccc(COC(=Nc3ccc(C(C)(C)C)cc3)C(C)C)c2)cc1` [Compound 345], in assay [1], the “LC50 HF” value was over 100 µg. Besides, the “LC50 BBA” value in assay [2] turned out to be 0.006%. Further, the “LC50 TBW E (eggs)” value in assay [3] is reported as over 0.1%. Further, the “LC50 CL” value in assay [4] is given as 0.018%. Besides, in assay [6], the “LC50 MW” value is listed as over 0.01%.
Regarding `Cc1ccc(N=C(OCc2cccc(Oc3ccc(F)cc3)c2)C(C)C)cc1Cl` [Compound 402], the “LC50 HF” value in assay [1] is under 100 µg. Further, the “LC50 BBA” value in assay [2] is on record as 0.0006%. For the same compound, the “LC50 TBW E (eggs)” value in assay [3] is listed as over 0.1%. In addition, the “LC50 CL” value in assay [4] is on record as over 0.1%. In addition, in assay [6], the “LC50 MW” value is over 0.01%.
On to `CC(C)C(=Nc1cccc(OC(F)(F)F)c1)OCc1ccc(F)c(Oc2ccccc2)c1` [Compound 437], for which, in assay [1], the “LC50 HF” value is under 100 µg. Besides, the “LC50 BBA” value in assay [2] is 0.0003%. Besides, in assay [3], the “LC50 TBW E (eggs)” value is listed as 0.025%. Further, in assay [4], the “LC50 CL” value worked out at 0.00075%. Further, the “LC50 MW” value in assay [6] was over 0.01%.
Regarding `CC(C)C(=Nc1cccc(C(F)(F)F)c1)OCc1cc(Oc2ccccc2)ccn1` [Compound 506], the “LC50 HF” value in assay [1] is 40 µg. Further, in assay [2], the “LC50 BBA” value is 0.03%. In addition, in assay [3], the “LC50 TBW E (eggs)” value is over 0.1%. Besides, the “LC50 CL” value in assay [4] was found to be 0.005%. For the same compound, the “LC50 MW” value in assay [6] was over 0.01%.
In the same order, the values of `CCc1ccc(N=C(OCc2cccc(Oc3ccc(F)cc3)c2)C(C)C)cc1Cl` [Compound 438] are over 100 µg, 0.0003%, under 0.1%, 0.0009% and over 0.01%.
In the same order, the values of `Cc1cc(N=C(OCc2cccc(Oc3ccc(Cl)cc3)c2)C(C)C)ccc1F` [Compound 397] are under 100 µg, 0.002%, under 0.1%, 0.0019% and over 0.01%.
In the same order, the values of `C=C(C)C(=Nc1ccc(F)c(Cl)c1)OCc1cccc(Oc2ccccc2)c1` [Compound 417] are under 100 µg, 0.004%, 0.04%, 0.0008% and over 0.01%.
As to `CC(C)C(=Nc1ccc(F)c(Cl)c1F)OCc1ccc(F)c(Oc2ccc(Cl)cc2)c1` [Compound 395], the “LC50 HF” value in assay [1] amounted to 8.6 µg. Besides, the “LC50 BBA” value in assay [2] was determined as 0.0001%. In addition, the “LC50 TBW E (eggs)” value in assay [3] is 0.018%. Besides, the “LC50 CL” value in assay [4] is under 0.1%. In addition, in assay [6], the “LC50 MW” value worked out at 0.004%.
Consider `CC(C)C(=Nc1ccc(OCC(F)(F)F)c(Cl)c1)OCc1cccc(Oc2ccc(F)cc2)c1` [Compound 420], for which the “LC50 HF” value in assay [1] was over 100 µg. In assay [2], the “LC50 BBA” value is recorded as 0.004%. Besides, the “LC50 TBW E (eggs)” value in assay [3] came out at 0.05%. Further, the “LC50 CL” value in assay [4] worked out at 0.00075%. The “LC50 MW” value in assay [6] is over 0.01%.
In the case of `CC(C)C(=Nc1cccc(Br)c1)OCc1ccc(F)c(Oc2ccc(Cl)cc2)c1` [Compound 386], in assay [1], the “LC50 HF” value was under 100 µg. The “LC50 BBA” value in assay [2] turned out to be 0.002%. For the same compound, the “LC50 TBW E (eggs)” value in assay [3] is on record as over 0.1%. Besides, the “LC50 CL” value in assay [4] stood at 0.0012%. The “LC50 MW” value in assay [6] is recorded as over 0.01%.
Consider `CCc1ccc(N=C(OCc2cccc(Oc3ccc(Cl)cc3)n2)C(C)C)cc1` [Compound 552], for which the “LC50 HF” value in assay [1] is over 100 µg. In assay [2], the “LC50 BBA” value is listed as 0.002%. The “LC50 TBW E (eggs)” value in assay [3] is over 0.1%. The “LC50 CL” value in assay [4] is listed as 0.0016%. Further, in assay [6], the “LC50 MW” value was over 0.01%.
`CC(C)C(=Nc1ccc(S(C)(=O)=O)cc1)OCc1ccc(F)c(Oc2ccc(F)cc2)c1` [Compound 414]: the “LC50 HF” value in assay [1] is under 100 µg. Besides, the “LC50 BBA” value in assay [2] is recorded as over 0.05%. In assay [3], the “LC50 TBW E (eggs)” value was over 0.1%. Besides, the “LC50 CL” value in assay [4] worked out at 0.0024%. Further, the “LC50 MW” value in assay [6] is over 0.01%.
